Source: ChEMBL document CHEMBL4616590, “Therapeutic significance of β-glucuronidase activity and its inhibitors: A review” (Eur J Med Chem, 2020)

Columns and labels:
Beta-glucuronidase [1] = target: T1, Beta-glucuronidase (Escherichia coli (strain K12), UniProt P05804); assay: Inhibition of Escherichia coli beta-glucuronidase using p-nitrophenyl-beta-D-glucuronide as substrate
[2] = target: T2, Beta-glucuronidase (Homo sapiens) (UniProt P08236); assay: Inhibition of beta-glucuronidase (unknown origin) at 1 mM relative to control
T2 sequence (whole entry): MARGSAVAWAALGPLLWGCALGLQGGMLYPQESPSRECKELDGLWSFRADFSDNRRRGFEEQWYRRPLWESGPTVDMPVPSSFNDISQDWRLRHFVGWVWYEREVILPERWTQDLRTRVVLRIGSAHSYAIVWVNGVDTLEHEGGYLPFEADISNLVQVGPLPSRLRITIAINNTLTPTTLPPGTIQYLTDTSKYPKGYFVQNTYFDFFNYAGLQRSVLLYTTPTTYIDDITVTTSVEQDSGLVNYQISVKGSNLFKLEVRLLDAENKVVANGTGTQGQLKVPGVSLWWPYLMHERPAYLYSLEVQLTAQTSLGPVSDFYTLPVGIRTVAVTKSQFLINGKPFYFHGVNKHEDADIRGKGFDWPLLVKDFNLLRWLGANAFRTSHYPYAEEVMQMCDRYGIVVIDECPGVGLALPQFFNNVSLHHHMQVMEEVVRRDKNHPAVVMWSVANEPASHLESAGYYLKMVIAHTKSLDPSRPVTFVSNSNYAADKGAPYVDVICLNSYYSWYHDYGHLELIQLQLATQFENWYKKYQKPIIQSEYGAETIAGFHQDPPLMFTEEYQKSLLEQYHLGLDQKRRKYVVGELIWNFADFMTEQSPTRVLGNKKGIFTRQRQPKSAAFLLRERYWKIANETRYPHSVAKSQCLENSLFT

[3] = target: T2, Beta-glucuronidase (Homo sapiens); settings: 10 mg/ml
Beta-glucuronidase [4] = target: T1, Beta-glucuronidase; assay: Inhibition of Escherichia coli beta-glucuronidase
[5] = target: Beta-glucuronidase (Escherichia coli (strain K12)) (UniProt P05804); assay: Inhibition of Escherichia coli beta-glucuronidase at 1 mM relative to control
[6] = Inhibition of bovine liver beta-glucuronidase using p-nitrophenyl-beta-d-glucuronide as substrate after 30 mins by spectrophotometric analysis; set-up: species or system Bos taurus
[7] = Inhibition of bovine liver beta-glucuronidase using p-nitrophenyl-beta-D-glucuronide as substrate after 30 mins; set-up: species or system Bos taurus
[8] = target: T3, Beta-glucuronidase (Mus musculus) (UniProt P12265); assay: In vivo inhibition of beta-glucuronidase in OF1 mouse at 10 mg/kg, po after 8 days relative to control; format: functional, organism-based
T3 sequence (whole entry): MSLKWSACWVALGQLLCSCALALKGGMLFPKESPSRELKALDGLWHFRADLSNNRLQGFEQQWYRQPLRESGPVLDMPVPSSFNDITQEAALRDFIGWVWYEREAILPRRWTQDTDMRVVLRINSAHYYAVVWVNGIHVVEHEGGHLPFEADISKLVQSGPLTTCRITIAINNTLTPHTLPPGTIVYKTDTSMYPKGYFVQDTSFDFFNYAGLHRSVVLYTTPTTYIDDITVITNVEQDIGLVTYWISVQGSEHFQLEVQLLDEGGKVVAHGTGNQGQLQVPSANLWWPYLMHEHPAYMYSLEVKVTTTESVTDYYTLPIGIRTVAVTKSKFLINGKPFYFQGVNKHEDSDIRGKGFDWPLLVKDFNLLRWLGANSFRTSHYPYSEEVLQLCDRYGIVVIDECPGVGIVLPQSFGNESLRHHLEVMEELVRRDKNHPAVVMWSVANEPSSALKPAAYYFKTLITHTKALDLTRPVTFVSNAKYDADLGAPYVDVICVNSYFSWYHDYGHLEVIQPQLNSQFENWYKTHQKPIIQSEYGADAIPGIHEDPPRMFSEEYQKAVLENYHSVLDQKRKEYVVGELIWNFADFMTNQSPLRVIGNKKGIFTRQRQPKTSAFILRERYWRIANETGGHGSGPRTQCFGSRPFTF

[9] = Selectivity index, ratio of IC50 for beta-glucuronidase (unknown origin) to IC50 for Escherichia coli beta-glucuronidase
Beta-glucuronidase [10] = target: T4, Beta-glucuronidase (Homo sapiens, UniProt P08236); assay: Inhibition of beta-glucuronidase (unknown origin) using p-nitrophenyl-beta-d-glucuronide as substrate after 30 mins
T4 sequence (P08236 whole entry): T2 sequence (whole entry)

Beta-glucuronidase [11] = target: T5, Beta-glucuronidase (Mus musculus, UniProt P12265); assay: In-vivo inhibition of beta-glucuronidase in BALB/CJ mouse at 10 ug administered as twice daily; format: functional
T5 sequence (P12265 whole entry): T3 sequence (whole entry)

[12] = Half life in BALB/CJ mouse at 10 ug administered as twice daily; format: ADME; settings: in vivo
[13] = target: T3, Beta-glucuronidase (Mus musculus); assay: In-vivo inhibition of ICR mouse beta-glucuronidase at 60 mg/kg, sc after 10 weeks relative to DMH alone; format: functional, organism-based
[14] = target: T3, Beta-glucuronidase (Mus musculus); assay: In-vivo inhibition of ICR mouse beta-glucuronidase at 20 mg/kg, sc after 10 weeks relative to DMH alone; format: functional, organism-based
[15] = Inhibition of Escherichia coli K-12 beta-glucuronidase using PNPG as substrate preincubated for 5 mins followed by substrate addition measured after 30 mins

T1 sequence (P05804 whole entry): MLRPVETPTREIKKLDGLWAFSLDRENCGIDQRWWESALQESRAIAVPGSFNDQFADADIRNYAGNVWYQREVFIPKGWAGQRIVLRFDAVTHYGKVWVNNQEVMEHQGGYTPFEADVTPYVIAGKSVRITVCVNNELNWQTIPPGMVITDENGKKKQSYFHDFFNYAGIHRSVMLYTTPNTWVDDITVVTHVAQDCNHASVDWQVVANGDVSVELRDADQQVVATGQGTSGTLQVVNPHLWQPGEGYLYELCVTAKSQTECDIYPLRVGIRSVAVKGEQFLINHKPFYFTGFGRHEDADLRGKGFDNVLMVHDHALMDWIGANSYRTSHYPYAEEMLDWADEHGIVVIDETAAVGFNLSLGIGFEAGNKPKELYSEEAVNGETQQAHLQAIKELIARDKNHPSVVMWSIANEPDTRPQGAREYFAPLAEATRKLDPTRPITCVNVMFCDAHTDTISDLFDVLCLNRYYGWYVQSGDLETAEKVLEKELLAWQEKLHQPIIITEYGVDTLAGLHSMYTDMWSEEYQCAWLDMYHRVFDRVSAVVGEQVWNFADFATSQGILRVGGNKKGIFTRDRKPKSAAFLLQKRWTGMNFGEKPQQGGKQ
Sequence of Beta-glucuronidase (Escherichia coli (strain K12)) (P05804 whole entry, looked up): as the sequence (P05804 whole entry) above

Question: For `CC1(C)CCC2(C(=O)O)CC[C@]3(C)C(=CC[C@@H]4[C@@]5(C)[C@H](O)C[C@H](O)[C@@](C)(CO)[C@@H]5CC[C@]43C)[C@@H]2C1` (stereo partly specified), which IC50 (Beta-glucuronidase [1]) is on record?
Answer: The IC50 was 63 µM.

Question: Which inhibition [2] does the source give for `O=C(O)c1ccccc1O` here?
Answer: Its inhibition is 82%.

Question: And the inhibition [3]?
Answer: Its inhibition is 92.9%.

Question: With `CC(=O)N[C@H]1[C@@H](O)[C@H](O)[C@H](CO)N[C@@H]1Cc1ccccc1` as the compound, how does the IC50 (Beta-glucuronidase [4]) read?
Answer: The IC50 was 90.7 µM.

Question: What about the inhibition [5] of the same compound?
Answer: Its inhibition is 37.2%.

Question: For `Oc1ccccc1-c1nc2cc(Cl)cc(Cl)c2[nH]1`, which IC50 [6] is on record?
Answer: Its IC50 is 4.48 µM.

Question: And the IC50 [7]?
Answer: Its IC50 is 4.48 µM.

Question: Which inhibition [8] does the source give for `C[C@]12C=CC(=O)C=C1CC[C@H]1[C@@H]3C[C@@H](O)[C@](O)(C(=O)CO)[C@@]3(C)C[C@H](O)[C@@]12F` here?
Answer: Its inhibition is 94.1%.

Question: For `COc1ccc(C[C@@H]2CCC[C@@H]3[C@H](O)[C@@H](O)[C@H](CO)N23)cc1`, which Ratio IC50 [9] is on record?
Answer: The Ratio IC50 was 7.

Question: And the inhibition [2]?
Answer: The inhibition was less than 50%.

Question: With `CC(=O)c1ccc(Nc2cc(C)nc3ccccc23)cc1` as the compound, how does the IC50 (Beta-glucuronidase [10]) read?
Answer: The IC50 was 4 µM.

Question: Which IC50 (Beta-glucuronidase [11]) does the source give for `CCOc1ccc(NC(=S)N(CCO)Cc2cc3cc(C)cc(C)c3[nH]c2=O)cc1` here?
Answer: The IC50 was 0.164 µM.

Question: What about the half-life [12] of the same compound?
Answer: The half-life was less than 1 h.

Question: What does the source list for `O=c1cc(-c2ccc(O)c(O)c2)oc2cc(O)cc(O)c12` [LUTEOLIN]?
Answer: inhibition [13]: 21.3%; inhibition [14]: 14.9%; IC50 [15]: 8.68 µM
